Results reported in article PMC11005379, “Control of three-carbon amino acid homeostasis by promiscuous importers and exporters in Bacillus subtilis: role of the “sleeping beauty” amino acid exporters” (mBio, 2024).

Experiments:
Type in all cases: cell-based
AimA = target: T1, AimA (Bacillus subtilis, UniProt Q45577); test: radiolabelled substrate uptake, wild type against deletion strain; details: labelled compound, 30 mM beta-alanine, C-Glc minimal medium, intact cells
T1 construct: native full-length APC superfamily permease in intact B. subtilis cells; wild type 168 against deltaaimA (GP3590)
T1 sequence (Q45577 1-539): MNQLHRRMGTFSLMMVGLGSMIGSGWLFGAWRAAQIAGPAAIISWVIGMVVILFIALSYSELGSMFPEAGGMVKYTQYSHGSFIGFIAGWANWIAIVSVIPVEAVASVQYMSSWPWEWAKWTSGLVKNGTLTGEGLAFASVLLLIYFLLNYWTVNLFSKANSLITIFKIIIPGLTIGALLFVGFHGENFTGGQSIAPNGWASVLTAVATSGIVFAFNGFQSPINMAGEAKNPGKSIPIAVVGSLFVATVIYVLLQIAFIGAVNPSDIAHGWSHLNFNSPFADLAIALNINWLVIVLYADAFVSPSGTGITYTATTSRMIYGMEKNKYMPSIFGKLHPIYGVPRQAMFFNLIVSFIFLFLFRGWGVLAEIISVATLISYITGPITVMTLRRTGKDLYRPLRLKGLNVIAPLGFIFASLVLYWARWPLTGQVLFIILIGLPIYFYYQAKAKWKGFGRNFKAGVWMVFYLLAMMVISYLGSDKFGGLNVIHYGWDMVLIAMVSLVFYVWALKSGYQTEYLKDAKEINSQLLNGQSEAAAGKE

AlaP = target: T2, AlaP (Bacillus subtilis, UniProt O34618); test: as above; details: labelled compound, 30 mM beta-alanine, C-Glc minimal medium, intact cells
T2 construct: gene ytnA; native full-length APC superfamily permease in intact B. subtilis cells
T2 sequence (O34618 1-463): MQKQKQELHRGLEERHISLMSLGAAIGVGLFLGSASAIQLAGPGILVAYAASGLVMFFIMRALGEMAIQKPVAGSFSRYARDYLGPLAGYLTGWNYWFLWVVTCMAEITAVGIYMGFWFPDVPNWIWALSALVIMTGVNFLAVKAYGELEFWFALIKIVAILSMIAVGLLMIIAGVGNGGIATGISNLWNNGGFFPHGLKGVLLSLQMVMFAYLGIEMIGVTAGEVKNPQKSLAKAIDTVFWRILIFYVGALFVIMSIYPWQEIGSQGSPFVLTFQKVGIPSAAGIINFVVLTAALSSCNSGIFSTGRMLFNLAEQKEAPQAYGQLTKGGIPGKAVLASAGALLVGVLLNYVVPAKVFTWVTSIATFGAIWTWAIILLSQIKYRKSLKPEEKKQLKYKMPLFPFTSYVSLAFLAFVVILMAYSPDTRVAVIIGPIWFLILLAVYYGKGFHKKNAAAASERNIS

AexA (YdeD) = target: T3, AexA (YdeD) (Bacillus subtilis, UniProt P96661); test: intracellular accumulation of radiolabelled substrate, overexpressing against deletion strain; details: labelled compound; 30 mM beta-alanine; C-Glc minimal medium; export; intact cells
T3 construct: native full-length EamA family exporter in intact B. subtilis cells; chromosomal gene overexpressed by aerA Y179D (GP4117) against aerA Y179D deltaaexA (GP3958)
T3 sequence (P96661 1-319): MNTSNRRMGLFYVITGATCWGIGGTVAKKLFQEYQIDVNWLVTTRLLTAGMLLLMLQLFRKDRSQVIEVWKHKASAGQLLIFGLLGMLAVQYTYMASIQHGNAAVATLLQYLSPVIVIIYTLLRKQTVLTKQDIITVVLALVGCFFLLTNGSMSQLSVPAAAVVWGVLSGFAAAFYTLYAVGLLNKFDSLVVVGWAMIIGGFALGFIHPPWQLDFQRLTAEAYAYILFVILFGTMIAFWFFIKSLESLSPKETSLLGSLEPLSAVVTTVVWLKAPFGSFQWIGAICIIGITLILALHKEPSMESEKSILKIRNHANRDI

NCCC(=O)O [β-alanine]
radiolabelled substrate uptake, wild type against deletion strain (AimA): a severe reduction was observed in the alaP and aimA mutants | radiolabelled substrate uptake, wild type against deletion strain (AlaP): a severe reduction was observed in the alaP and aimA mutants | intracellular accumulation of radiolabelled substrate, overexpressing against de (AexA (YdeD)): clearly demonstrates that AexA indeed acts as an exporter for β-alanine
